Assay results: PubChem BioAssay (NCI)
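Dose response: 5 concentrations. Exposure: 48 h. Format: 96-well plates. Endpoint: linear interpolation; highest concentration if not reached. TGI denotes the concentration required for complete inhibition of growth.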

Legend:
Test in all cases: NCI anticancer screen, dose series, 48 h
SW-620 colon = tested on: SW-620 colon
NCI-H522 lung = tested on: NCI-H522 lung
K-562 leukemia = tested on: K-562 leukemia
RPMI-8226 leukemia = tested on: RPMI-8226 leukemia
M14 melanoma = tested on: M14 melanoma
BT-549 breast = tested on: BT-549 breast
SNB-19 CNS = tested on: SNB-19 CNS
MDA-MB-435 = tested on: MDA-MB-435
OVCAR-8 ovarian = tested on: OVCAR-8 ovarian
ACHN renal = tested on: ACHN renal
KM12 colon = tested on: KM12 colon
SF-295 CNS = tested on: SF-295 CNS
UO-31 renal = tested on: UO-31 renal
PC-3 prostate = tested on: PC-3 prostate
NCI-H23 lung = tested on: NCI-H23 lung
IGROV1 ovarian = tested on: IGROV1 ovarian
UACC-257 melanoma = tested on: UACC-257 melanoma
OVCAR-3 ovarian = tested on: OVCAR-3 ovarian
UACC-62 melanoma = tested on: UACC-62 melanoma
HCT-116 colon = tested on: HCT-116 colon
HOP-62 NSCLC = tested on: HOP-62 NSCLC
HOP-92 NSCLC = tested on: HOP-92 NSCLC
SK-MEL-2 melanoma = tested on: SK-MEL-2 melanoma
786-0 renal = tested on: 786-0 renal
NCI-H226 lung = tested on: NCI-H226 lung
SF-268 CNS = tested on: SF-268 CNS
T-47D breast = tested on: T-47D breast
TK-10 renal = tested on: TK-10 renal
OVCAR-4 ovarian = tested on: OVCAR-4 ovarian
U251 CNS = tested on: U251 CNS
EKVX NSCLC = tested on: EKVX NSCLC
MDA-MB-231 breast = tested on: MDA-MB-231 breast
LOX IMVI melanoma = tested on: LOX IMVI melanoma
SK-MEL-5 melanoma = tested on: SK-MEL-5 melanoma
OVCAR-5 ovarian = tested on: OVCAR-5 ovarian
NCI-H460 lung = tested on: NCI-H460 lung
CAKI-1 renal = tested on: CAKI-1 renal
MALME-3M melanoma = tested on: MALME-3M melanoma
A549 NSCLC = tested on: A549 NSCLC
NCI/ADR-RES ovarian = tested on: NCI/ADR-RES ovarian
MDA-N = tested on: MDA-N
A498 renal = tested on: A498 renal
DU-145 prostate = tested on: DU-145 prostate
HT29 colon = tested on: HT29 colon
SK-MEL-28 melanoma = tested on: SK-MEL-28 melanoma
SN12C renal = tested on: SN12C renal
CCRF-CEM leukemia = tested on: CCRF-CEM leukemia
HS 578T breast = tested on: HS 578T breast
HL-60(TB) leukemia = tested on: HL-60(TB) leukemia
MOLT-4 leukemia = tested on: MOLT-4 leukemia
RXF 393 renal = tested on: RXF 393 renal
HCT-15 colon = tested on: HCT-15 colon
SR leukemia = tested on: SR leukemia
MCF7 breast = tested on: MCF7 breast
HCC-2998 colon = tested on: HCC-2998 colon
SK-OV-3 ovarian = tested on: SK-OV-3 ovarian
SNB-75 CNS = tested on: SNB-75 CNS
SF-539 CNS = tested on: SF-539 CNS
COLO 205 colon = tested on: COLO 205 colon

Measured: TGI

Cc1ccc(-[n+]2cc([O-])on2)cc1
not listed: MCF7 breast | HCC-2998 colon | SK-OV-3 ovarian | SNB-75 CNS | SF-539 CNS | COLO 205 colon
> 100 µM: all other assays above

O=C1c2cc3c(cc2CC12Cc1ccc4c(c1C2=O)CCC4)CCCC3 (stereo not given)
not listed: BT-549 breast | KM12 colon | UACC-62 melanoma | NCI-H226 lung | SN12C renal | COLO 205 colon
> 100 µM: all other assays above

COC(=O)CC(C)(NS(=O)c1ccc(C)cc1)c1ccccc1 (stereo not given)
not listed: M14 melanoma | BT-549 breast | OVCAR-8 ovarian | CAKI-1 renal | CCRF-CEM leukemia | SNB-75 CNS
> 100 µM: all other assays above

C=CCNC(=S)N/C=C(\C#N)C(N)=O
not listed: BT-549 breast | HOP-92 NSCLC | TK-10 renal
> 100 µM: all other assays above
